From patent publication US20100291706A1, “DYE CONJUGATES AND METHODS OF USE” (Millipore Corporation, priority 2009, published 2010)

Test: Absorbance spectra of cyanine dye stocks
Assay type: physicochemical
Conditions: free dye
Experimental: Phycoerythrin conjugates: NGyS, NGy7 and Gy5 dye stocks are resuspended, their absorbances determined and their concentrations calculated. Phycoerythrin (PE) aliquots (2 nmoles) are treated in 0.5 M sodium carbonate pH 9.0 for 1.5 hr at room temperature with: a) 1:15, 1:30, 1:50 or 1:80 fold molar excesses of NGyS; b) 1:15 or 1:30 fold molar excesses of NGy7; or c) 1:30 or 1:50 molar excesses of Gy5. After conjugation, each reaction mixture is loaded on a PD-10 column and eluted with PBS. Fractions containing protein are pooled together for each mixture. Absorbance and fluorescence spectra of the products are obtained and energy transfer efficiency assessed.
Streptavidin conjugates: The concentration of a dye solution is determined through absorbance readings of appropriate dye dilutions. Streptavidin is treated with a molar excess (e.g., 20 fold excess) of dye in sodium carbonate buffer (pH 9.0) for one hour. After conjugation, the mixture is purified on a PD-10 column using PBS as an eluent buffer, and 0.5 mL fractions are collected. Major fractions containing the streptavidin-dye conjugate are pooled together and absorbance and emission spectra are acquired.

CCN1C(=CC=CC=CC=CC2=[N+](CCCCCC(=O)O)c3ccc(S(=O)(=O)O)cc3C2(C)C)C(C)(C)c2cc(S(=O)(=O)[O-])ccc21 [Cy7]
absorption maximum: 751.8 nm
